{"source": "ChEMBL document CHEMBL1150275", "about": "“Pharmacological and pharmacokinetic characterization of 2-piperazine-alpha-isopropyl benzylamine derivatives as melanocortin-4 receptor antagonists” (Bioorg Med Chem, 2008)", "key": {"[1]": {"assay": "Volume of distribution in dog at 5 mg/kg, iv and 10 mg/kg, po", "format": "ADME, organism-based, Canis lupus familiaris", "details": "in vivo"}, "[2]": {"assay": "Cmax in rat at 5 mg/kg, iv and 10 mg/kg, po", "format": "ADME, organism-based", "details": "in vivo"}, "[3]": {"assay": "Tmax in rat brain at 10 mg/kg, po", "format": "ADME, organism-based", "design": "dose 10 mg/kg, route oral"}, "[4]": {"assay": "Volume of distribution in monkey at 5 mg/kg, iv and 10 mg/kg, po", "format": "ADME, organism-based, Macaca mulatta", "details": "rhesus monkey, in vivo"}, "physchem": {"assay": "physchem", "details": "buffer, pH 7.4"}, "[5]": {"assay": "Ratio of Cmax in brain to plasma in rat at 10 mg/kg, po", "format": "ADME, organism-based", "design": "dose 10 mg/kg, route oral", "details": "brain and plasma"}, "[6]": {"assay": "AUC in mouse at 10 mg/kg, po", "format": "ADME, organism-based", "design": "dose 10 mg/kg, route oral", "details": "plasma"}, "[7]": {"assay": "Volume of distribution in mouse at 5 mg/kg, iv and 10 mg/kg, po", "format": "ADME, organism-based", "details": "in vivo"}, "[8]": {"assay": "Cmax in monkey at 5 mg/kg, iv and 10 mg/kg, po", "format": "ADME, organism-based, Macaca mulatta", "details": "rhesus monkey, in vivo"}, "Brain": {"system": "Brain", "assay": "AUC in rat brain at 10 mg/kg, po", "format": "ADME, organism-based", "design": "dose 10 mg/kg, route oral", "details": "in vivo"}, "[9]": {"assay": "Oral bioavailability in monkey at 10 mg/kg", "format": "ADME, organism-based, Macaca mulatta", "details": "rhesus monkey, in vivo"}, "[10]": {"assay": "AUC in rat at 10 mg/kg, po", "format": "ADME, organism-based", "design": "dose 10 mg/kg, route oral", "details": "plasma"}, "[11]": {"assay": "Ratio of drug level in brain to plasma in mouse at 5 mg/kg, iv after 4 hrs", "format": "ADME, organism-based", "design": "dose 5 mg/kg, route intravenous"}, "[12]": {"assay": "Ratio of Cmax in brain to plasma in rat at 10 mg/kg, po after 1 hr", "format": "ADME, organism-based", "design": "dose 10 mg/kg, route oral", "details": "brain and plasma"}, "[13]": {"assay": "Drug level in mouse brain at 5 mg/kg, iv after 1 hr", "format": "ADME, organism-based", "design": "dose 5 mg/kg, route intravenous", "details": "read-out: Drug uptake"}, "[14]": {"assay": "Cmax in mouse at 5 mg/kg, iv and 10 mg/kg, po", "format": "ADME, organism-based", "details": "in vivo"}, "[15]": {"assay": "Tmax in monkey at 5 mg/kg, iv and 10 mg/kg, po", "format": "ADME, organism-based, Macaca mulatta", "details": "rhesus monkey, in vivo"}, "[16]": {"assay": "AUC in dog at 10 mg/kg, po", "format": "ADME, organism-based, Canis lupus familiaris", "design": "dose 10 mg/kg, route oral", "details": "plasma"}, "[17]": {"assay": "Tmax in rat at 5 mg/kg, iv and 10 mg/kg, po", "format": "ADME, organism-based", "details": "in vivo"}, "[18]": {"assay": "Oral bioavailability in mouse at 10 mg/kg", "format": "ADME, organism-based", "details": "in vivo"}, "[19]": {"assay": "Cmax in rat brain at 10 mg/kg, po", "format": "ADME, organism-based", "design": "dose 10 mg/kg, route oral"}, "[20]": {"assay": "Drug level in rat brain at 10 mg/kg, po after 1 hr", "format": "ADME, organism-based", "design": "dose 10 mg/kg, route oral", "details": "read-out: Drug uptake"}, "[21]": {"assay": "Oral bioavailability in rat at 10 mg/kg", "format": "ADME, organism-based", "details": "in vivo"}, "[22]": {"assay": "Ratio of Cmax in brain to plasma in rat at 10 mg/kg, po after 4 hrs", "format": "ADME, organism-based", "design": "dose 10 mg/kg, route oral", "details": "brain and plasma"}, "[23]": {"assay": "AUC in monkey at 10 mg/kg, po", "format": "ADME, organism-based, Macaca mulatta", "design": "dose 10 mg/kg, route oral", "details": "rhesus monkey, plasma"}, "[24]": {"assay": "Drug level in rat brain at 10 mg/kg, po after 4 hrs", "format": "ADME, organism-based", "design": "dose 10 mg/kg, route oral", "details": "read-out: Drug uptake"}, "Caco-2": {"system": "Caco-2", "assay": "Apparent permeability across human Caco-2 cells", "format": "ADME, cell-based"}, "[25]": {"assay": "Ratio of AUC in brain to plasma in rat at 10 mg/kg, po", "format": "ADME, organism-based", "design": "dose 10 mg/kg, route oral", "details": "brain and plasma"}, "[26]": {"assay": "Cmax in dog at 5 mg/kg, iv and 10 mg/kg, po", "format": "ADME, organism-based, Canis lupus familiaris", "details": "in vivo"}, "[27]": {"assay": "Ratio of drug level in brain to plasma in mouse at 5 mg/kg, iv after 1 hr", "format": "ADME, organism-based", "design": "dose 5 mg/kg, route intravenous"}, "[28]": {"assay": "Oral bioavailability in dog at 10 mg/kg", "format": "ADME, organism-based, Canis lupus familiaris", "details": "in vivo"}, "[29]": {"assay": "Volume of distribution in rat at 5 mg/kg, iv and 10 mg/kg, po", "format": "ADME, organism-based", "details": "in vivo"}, "[30]": {"assay": "Tmax in mouse at 5 mg/kg, iv and 10 mg/kg, po", "format": "ADME, organism-based", "details": "in vivo"}, "[31]": {"assay": "Drug level in mouse brain at 5 mg/kg, iv after 4 hrs", "format": "ADME, organism-based", "design": "dose 5 mg/kg, route intravenous", "details": "read-out: Drug uptake"}, "[32]": {"assay": "Tmax in dog at 5 mg/kg, iv and 10 mg/kg, po", "format": "ADME, organism-based, Canis lupus familiaris", "details": "in vivo"}}}
{"compound": "CC(C)[C@H](NC(=O)CCN(C)C)c1cccc(F)c1N1CCN(C(=O)[C@H](C)Cc2ccc(Cl)cc2)CC1", "values": [{"measurement": "Vd", "setting": "[1]", "value": 8.7, "unit": "L/kg"}, {"measurement": "Cmax", "setting": "[2]", "value": 195, "unit": "ng/mL"}, {"measurement": "Tmax", "setting": "[3]", "value": 6, "unit": "h"}, {"measurement": "Vd", "setting": "[4]", "value": 5.6, "unit": "L/kg"}, {"measurement": "logD", "setting": "physchem", "value": 2.4}, {"measurement": "Kp", "setting": "[5]", "value": 0.27}, {"measurement": "AUC", "setting": "[6]", "value": 2690, "unit": "ng·h/mL"}, {"measurement": "Vd", "setting": "[7]", "value": 5.2, "unit": "L/kg"}, {"measurement": "Cmax", "setting": "[8]", "value": 200, "unit": "ng/mL"}, {"measurement": "AUC", "setting": "Brain", "value": 618, "unit": "ng·h/g"}, {"measurement": "bioavailability", "setting": "[9]", "value": 21, "unit": "%"}, {"measurement": "AUC", "setting": "[10]", "value": 1290, "unit": "ng·h/mL"}, {"measurement": "Kp at 4 h", "setting": "[11]", "value": 0.8}, {"measurement": "Kp at 1 h", "setting": "[12]", "value": 0.05}, {"measurement": "concentration at 1 h", "setting": "[13]", "value": 322, "unit": "ng/g"}, {"measurement": "Cmax", "setting": "[14]", "value": 308, "unit": "ng/mL"}, {"measurement": "Tmax", "setting": "[15]", "value": 6.7, "unit": "h"}, {"measurement": "AUC", "setting": "[16]", "value": 3850, "unit": "ng·h/mL"}, {"measurement": "Tmax", "setting": "[17]", "value": 6, "unit": "h"}, {"measurement": "bioavailability", "setting": "[18]", "value": 42, "unit": "%"}, {"measurement": "Cmax", "setting": "[19]", "value": 52, "unit": "ng/g"}, {"measurement": "concentration at 1 h", "setting": "[20]", "value": 6.3, "unit": "ng/g"}, {"measurement": "bioavailability", "setting": "[21]", "value": 31, "unit": "%"}, {"measurement": "Kp at 4 h", "setting": "[22]", "value": 0.2}, {"measurement": "AUC", "setting": "[23]", "value": 2650, "unit": "ng·h/mL"}, {"measurement": "concentration at 4 h", "setting": "[24]", "value": 38, "unit": "ng/g"}, {"measurement": "Papp", "setting": "Caco-2", "value": 10, "unit": "×10⁻⁶ cm/s"}, {"measurement": "Kp", "setting": "[25]", "value": 0.48}, {"measurement": "Cmax", "setting": "[26]", "value": 250, "unit": "ng/mL"}, {"measurement": "Kp at 1 h", "setting": "[27]", "value": 0.6}, {"measurement": "bioavailability", "setting": "[28]", "value": 37, "unit": "%"}, {"measurement": "Vd", "setting": "[29]", "value": 7.7, "unit": "L/kg"}, {"measurement": "Tmax", "setting": "[30]", "value": 0.5, "unit": "h"}, {"measurement": "concentration at 4 h", "setting": "[31]", "value": 175, "unit": "ng/g"}, {"measurement": "Tmax", "setting": "[32]", "value": 4, "unit": "h"}]}
